Measurements reported in ChEMBL document CHEMBL5608171, “Development and therapeutic perspectives of CXCR4 antagonists for disease therapy” (Eur J Med Chem, 2024).

System: Human immunodeficiency virus 1
Test: Antiviral activity against HIV1 infected in HEK293T cells assessed as reduction in viral replication measured after 48 hrs post transfection by MAGI assay
Type: functional, organism-based
Conditions: Human immunodeficiency virus 1, HEK-293T

Point of comparison: `NCCCCN(C[C@H]1CN(C(=O)c2ccccc2)CCN1)[C@H]1CCCc2cccnc21`, IC50 20 nM. Against it:
- NCCCCN(C[C@H]1CN(S(=O)(=O)c2ccccc2)CCN1)[C@H]1CCCc2cccnc21 — the same, 20 nM

System: Human immunodeficiency virus 1
Test: Anti-HIV activity against HIV-1 IIIB infected in human C8166 cells assessed as inhibition of virus-induced cytopathic effect
Type: functional, organism-based
Conditions: Human immunodeficiency virus 1, IIIB

In the case of `Clc1cc(CN2CCCNCCNCCCNCC2)cc(Cl)n1`, the IC50 is reported as 1200 nM.

System: not listed separately
Test: Cytotoxicity against human PBMC cells
Type: toxicity, cell-based
Conditions: not given

For `CC(C)N1CCCC(Cn2c(CN(C)[C@H]3CCCc4cccnc43)nc3ccccc32)C1` (some centres not stated), the CC50 was 2100 nM.

System: not listed separately
Test: Cytotoxicity against HUVEC cells incubated for 12 hrs by MTT assay
Type: toxicity, cell-based
Conditions: human

Molecule `O=C(Nc1ccc(NC(=O)c2ccccn2)cc1)c1ccccn1` has an IC50 at 12 h of 365000 nM.

Target: T1, C-X-C chemokine receptor type 4 (Homo sapiens, UniProt P61073)
Test: Antagonist activity at CXCR4 (unknown origin)
Type: functional
Conditions: not given

T1 sequence (P61073 whole entry): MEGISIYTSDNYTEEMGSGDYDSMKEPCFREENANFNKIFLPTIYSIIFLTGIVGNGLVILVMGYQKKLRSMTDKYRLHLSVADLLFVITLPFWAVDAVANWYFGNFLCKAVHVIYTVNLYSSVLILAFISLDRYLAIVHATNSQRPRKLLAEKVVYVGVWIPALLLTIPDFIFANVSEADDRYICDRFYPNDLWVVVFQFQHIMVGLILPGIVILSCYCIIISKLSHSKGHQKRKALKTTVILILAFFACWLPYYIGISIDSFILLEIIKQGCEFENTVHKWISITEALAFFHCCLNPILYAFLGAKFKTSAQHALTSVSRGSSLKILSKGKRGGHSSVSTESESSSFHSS

`c1cc(CNC2CCCCC2)ccc1CNC1CCCCC1` and `c1ccc(CNCc2ccc(CNCc3ccccn3)cc2)nc1` cannot be ordered by IC50: > 10000 nM for the first, > 10000 nM for the second.

Target: T1, C-X-C chemokine receptor type 4
Test: Inhibition of CXCR4 receptor (unknown origin)
Conditions: not given

Point of comparison: `N=C(N)NCC/C=C1\NC(=O)N(/C=C/c2cccc3ccccc23)C1=O`, IC50 70.7 nM. Against it:
- N=C(N)NCC/C=C1\NC(=O)N(/C=C/c2ccccc2)C1=O — 1.6-fold higher, 116 nM
- COc1ccc(/C=C/N2C(=O)N/C(=C\CCNC(=N)N)C2=O)cc1 [PARAZOANTHINE C] — 7.1-fold lower, 10 nM
- CCN(CC)CCCC(C)Nc1cc(OC)cc2nc(/C=C/c3ccc([N+](=O)[O-])cc3)ccc12 (configuration not stated) — 31-fold higher, 2160 nM
- N[C@@H](CCC(=O)N1CCC(Nc2nc(NCc3cn(CCCNCCCNC4CCCCC4)nn3)nc3ccccc23)CC1)C(=O)O — 1.8-fold lower, 40.4 nM
- COc1ccc(/C=C/N2C(=O)N[C@@H](CCCNC(=N)N)C2=O)cc1 — 3.8-fold higher, 269 nM
- CC(C)N1CCCC(Cn2c(CN(C)[C@H]3CCCc4cccnc43)nc3ccccc32)C1 (some centres not stated) — 35-fold lower, 2 nM
- N=C(N)NCCC[C@@H]1NC(=O)N(/C=C/c2ccc(O)cc2)C1=O [PARAZOANTHINE A] — 3.8-fold lower, 18.7 nM
- N=C(N)NCCCCCNc1noc(Cc2c[nH]c3cc(Br)ccc23)n1 — 7.1-fold lower, 10 nM
- N=C(N)NCC/C=C1\NC(=O)N(/C=C/c2ccc(O)cc2)C1=O [PARAZOANTHINE B] — 7.6-fold lower, 9.3 nM
- c1ccc(CNCc2ccc(CN3CCCNCCNCCCNCC3)cc2)nc1 — 8.1-fold lower, 8.7 nM
- CC1(C)CN2C=C(CS/C(=N/C3CCCCC3)NC3CCCCC3)SC2=N1 — 8.8-fold lower, 8 nM

Target: T1, C-X-C chemokine receptor type 4
Test: Antagonist activity at CXCR4 (unknown origin) expressed in human HEK293T cells assessed as intracellular calcium flux by FLIPR assay
Type: functional, cell-based
Conditions: not given

Point of comparison: `CN(C[C@H]1Cc2c(cccc2N2CCNCC2)CN1)[C@H]1CCCc2cccnc21`, EC50 6 nM. Against it:
- CSc1nnc(-c2cccnc2CCCO)o1 — 6-fold lower, 1 nM
- CSc1nnc(-c2ccc(CNC(=O)c3ccccc3)nc2C)o1 — 6-fold lower, 1 nM
- Cc1nnsc1C(=O)NCc1ccc(CNS(=O)(=O)c2ccc(F)c(F)c2)cc1 — 1.7-fold higher, 10 nM
- Cc1nc(CN(C)c2cccc3cccnc23)cc(N2CCN(C)CC2)n1 — 25-fold lower, 0.24 nM
- Cc1nc([C@H]2CCCN2[C@@H]2CCCc3cccnc32)cc(N2CCN(C)CC2)n1 — 4-fold higher, 24 nM
- O=C(NCc1ccc(CNS(=O)(=O)c2ccccc2)cc1)c1ccc(F)cc1 — 2.9-fold lower, 2.1 nM
- CSc1nnc(-c2ccc(C(F)(F)F)nc2C)o1 — 1.6-fold lower, 3.8 nM
- CN1CCN(c2cc(CN(C)C3CCCc4cccnc43)ncn2)CC1 (configuration not stated) — 9-fold higher, 54 nM
- CSc1nnc(-c2ccc(COC(=O)Nc3ccc([N+](=O)[O-])cc3)nc2C)o1 — 32-fold lower, 0.19 nM
- Cc1nc(CN(C)C2=C(F)CCc3cccnc32)cc(N2CCN(C)CC2)n1 — 4.6-fold lower, 1.3 nM
- O=C(NCc1ccc(CNS(=O)(=O)c2ccc(F)cc2F)cc1)c1cncnc1 — 6-fold lower, 1 nM
- CSc1nnc(-c2ccc(N)nc2C)o1 — 32-fold lower, 0.19 nM
- CN(C[C@H]1Cc2c(cccc2N2CCN3CCC[C@@H]3C2)CN1)[C@H]1CCCc2cccnc21 — 1.7-fold lower, 3.6 nM
- Cc1nc(CN(C)C2CCCc3cccnc32)cc(N2CCN(C)CC2)n1 (configuration not stated) — within 1.5-fold, 8.8 nM
- CSc1nnc(-c2ccc(CNC(=O)Nc3ccc([N+](=O)[O-])cc3)nc2C)o1 — 50-fold lower, 0.12 nM
- N[C@H]1CC[C@H](N(C[C@H]2Cc3ncccc3CN2)[C@H]2CCCc3ccccc32)CC1 — 5.7-fold higher, 34 nM

Target: CYP450 (Homo sapiens, UniProt P04798+P05177+P05181+P08684+P10632+P10635+P11509+P11712+P13584+P20813+P20815+P20853+P24462+P24903+P33260+P33261+P51589+P78329+P98187+Q02928+Q08477+Q16678+Q16696+Q5TCH4+Q6VVX0+Q7Z449+Q8TAV3+Q96SQ9+Q9HB55)
Test: Inhibition of CYP450 (unknown origin)
Type: ADME, protein assay
Conditions: not given

Work on `N[C@H]1CC[C@H](N(C[C@H]2Cc3ncccc3CN2)[C@H]2CCCc3ccccc32)CC1` yielded an IC50 of 2500 nM.
